Test results as given in US11542262B2, “Phosphatidylinositol 3-kinase inhibitors” (NANJING ZHENGXIANG PHARMACEUTICALS CO., LTD., priority 2019, dated 2023).
Where two headings read alike, the source gives them in different places.

Key:
PI3Kγ = PI3Kγ (Homo sapiens, UniProt P48736); assay: ADP-Glo luminescent assay, enzymatic activity of PI3K gamma; assay type: biochemical; conditions: ATP 25 μM; read-out: PI3K gamma (nM) inhibitory activity (IC50)
PI3Kδ = PI3Kδ (Homo sapiens, UniProt O00329); assay: ADP-Glo luminescent assay, enzymatic activity of PI3K delta; assay type: biochemical; conditions: ATP 25 μM; read-out: PI3K delta (nM) inhibitory activity (IC50)
Chain of PI3Kδ (O00329 whole entry, species assumed, canonical isoform): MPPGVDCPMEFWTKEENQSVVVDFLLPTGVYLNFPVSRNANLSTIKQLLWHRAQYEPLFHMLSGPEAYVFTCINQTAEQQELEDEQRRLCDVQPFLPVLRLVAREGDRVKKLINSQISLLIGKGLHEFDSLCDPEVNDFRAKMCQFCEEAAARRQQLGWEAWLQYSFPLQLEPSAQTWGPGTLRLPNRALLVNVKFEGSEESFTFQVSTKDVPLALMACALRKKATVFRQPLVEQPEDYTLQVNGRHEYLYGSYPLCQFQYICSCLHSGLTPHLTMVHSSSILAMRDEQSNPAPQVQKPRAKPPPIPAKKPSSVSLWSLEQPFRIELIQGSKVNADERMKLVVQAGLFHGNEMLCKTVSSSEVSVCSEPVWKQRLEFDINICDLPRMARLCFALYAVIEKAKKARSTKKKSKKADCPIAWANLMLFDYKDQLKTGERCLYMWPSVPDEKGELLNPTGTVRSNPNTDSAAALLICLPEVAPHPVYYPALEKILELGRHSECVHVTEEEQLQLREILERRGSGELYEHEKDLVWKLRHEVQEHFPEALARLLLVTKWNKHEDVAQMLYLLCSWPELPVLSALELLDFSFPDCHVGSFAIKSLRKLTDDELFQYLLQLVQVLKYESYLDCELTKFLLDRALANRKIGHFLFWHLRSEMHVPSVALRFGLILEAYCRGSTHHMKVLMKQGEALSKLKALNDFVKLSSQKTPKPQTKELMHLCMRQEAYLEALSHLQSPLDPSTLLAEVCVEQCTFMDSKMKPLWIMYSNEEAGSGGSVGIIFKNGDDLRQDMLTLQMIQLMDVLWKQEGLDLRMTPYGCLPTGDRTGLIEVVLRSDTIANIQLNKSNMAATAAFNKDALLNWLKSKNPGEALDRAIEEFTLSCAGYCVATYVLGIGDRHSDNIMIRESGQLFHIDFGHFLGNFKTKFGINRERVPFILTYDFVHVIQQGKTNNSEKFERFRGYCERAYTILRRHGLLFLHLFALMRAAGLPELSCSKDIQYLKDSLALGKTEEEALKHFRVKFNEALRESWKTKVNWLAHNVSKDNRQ
Chain of PI3Kδ (P27986 whole entry partner, species assumed, canonical isoform): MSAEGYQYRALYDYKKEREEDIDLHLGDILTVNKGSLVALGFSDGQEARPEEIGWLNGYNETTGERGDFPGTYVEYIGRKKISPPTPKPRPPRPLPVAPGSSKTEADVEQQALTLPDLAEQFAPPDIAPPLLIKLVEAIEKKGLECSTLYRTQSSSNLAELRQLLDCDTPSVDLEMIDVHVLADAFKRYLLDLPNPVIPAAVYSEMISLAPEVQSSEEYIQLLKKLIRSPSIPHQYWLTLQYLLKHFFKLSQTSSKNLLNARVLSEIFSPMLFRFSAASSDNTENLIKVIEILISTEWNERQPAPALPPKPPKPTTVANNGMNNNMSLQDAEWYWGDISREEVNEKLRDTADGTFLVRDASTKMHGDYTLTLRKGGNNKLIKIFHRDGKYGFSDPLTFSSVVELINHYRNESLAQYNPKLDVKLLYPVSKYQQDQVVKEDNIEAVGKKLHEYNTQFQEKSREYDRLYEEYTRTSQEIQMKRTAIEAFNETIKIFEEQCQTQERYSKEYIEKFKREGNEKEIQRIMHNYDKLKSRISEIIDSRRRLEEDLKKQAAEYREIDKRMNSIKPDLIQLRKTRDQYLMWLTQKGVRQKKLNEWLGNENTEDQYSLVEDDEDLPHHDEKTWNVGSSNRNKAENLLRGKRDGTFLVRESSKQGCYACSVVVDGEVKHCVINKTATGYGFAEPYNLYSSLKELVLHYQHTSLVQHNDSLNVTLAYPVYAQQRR
Procedure: Enzymatic activity of PI3K isoforms: Enzymatic activity of the class I PI3K isoforms in the presence of the compounds of Table 1 was measured using ADP-Glo luminescent assay against PI3Kα, PI3Kβ, PI3Kδ and PI3Kγ with ATP concentration at 25 μM. […] The compounds would be tested from 1 or 10 μM, 3-fold dilution for 10 doses, in duplicate.
(§1) Compound preparation: Dilute a compound to 100× of the final desired highest inhibitor concentration in reaction by 100% DMSO. Transfer 100 μl of this compound dilution to a well in a 96-well plate and serially dilute it with DMSO for a total of 10 concentrations.
(§2) Kinase reaction: Prepare a solution of PI3K in 1× kinase buffer at 2-fold the final concentration of each reagent in the assay. Control wells contain 1× kinase buffer without enzyme. Prepare substrate solution of PIP2 substrate and ATP in 1× kinase reaction buffer at 2-fold of the final concentration. Add concentration substrate solution to each well to the final concentration. Cover the assay plate, shake to mix, and incubate at room temperature for 1 hour. Add 5 μl of ADP-Glo reagent to each well to stop the reaction. Mix briefly with a quick spin, shake slowly on the shaker for 120 min. Add 10 ul Kinase Detection Reagent to each well, shake 1 min, equilibrate for 30 min before reading on a luminescence plate reader.
(§3) Data Analysis: Convert RLU values to percent inhibition values as Percent inhibition=(max−sample RLU)/(max−min)*100. “min”—no enzyme control; “max”—DMSO control. Fit the data in XLFit excel add-in version 5.4.0.8 to obtain IC50 values. Y=Bottom+(Top−Bottom)/(1+(IC50/X)^HillSlope).

PI3Kα = PI3Kα (Homo sapiens, UniProt P42336); assay: ADP-Glo luminescent assay, enzymatic activity of PI3K alpha; assay type: biochemical; conditions: ATP 25 μM; read-out: PI3K alpha (nM) inhibitory activity (IC50)
Chain of PI3Kα (P42336 whole entry, species assumed, canonical isoform): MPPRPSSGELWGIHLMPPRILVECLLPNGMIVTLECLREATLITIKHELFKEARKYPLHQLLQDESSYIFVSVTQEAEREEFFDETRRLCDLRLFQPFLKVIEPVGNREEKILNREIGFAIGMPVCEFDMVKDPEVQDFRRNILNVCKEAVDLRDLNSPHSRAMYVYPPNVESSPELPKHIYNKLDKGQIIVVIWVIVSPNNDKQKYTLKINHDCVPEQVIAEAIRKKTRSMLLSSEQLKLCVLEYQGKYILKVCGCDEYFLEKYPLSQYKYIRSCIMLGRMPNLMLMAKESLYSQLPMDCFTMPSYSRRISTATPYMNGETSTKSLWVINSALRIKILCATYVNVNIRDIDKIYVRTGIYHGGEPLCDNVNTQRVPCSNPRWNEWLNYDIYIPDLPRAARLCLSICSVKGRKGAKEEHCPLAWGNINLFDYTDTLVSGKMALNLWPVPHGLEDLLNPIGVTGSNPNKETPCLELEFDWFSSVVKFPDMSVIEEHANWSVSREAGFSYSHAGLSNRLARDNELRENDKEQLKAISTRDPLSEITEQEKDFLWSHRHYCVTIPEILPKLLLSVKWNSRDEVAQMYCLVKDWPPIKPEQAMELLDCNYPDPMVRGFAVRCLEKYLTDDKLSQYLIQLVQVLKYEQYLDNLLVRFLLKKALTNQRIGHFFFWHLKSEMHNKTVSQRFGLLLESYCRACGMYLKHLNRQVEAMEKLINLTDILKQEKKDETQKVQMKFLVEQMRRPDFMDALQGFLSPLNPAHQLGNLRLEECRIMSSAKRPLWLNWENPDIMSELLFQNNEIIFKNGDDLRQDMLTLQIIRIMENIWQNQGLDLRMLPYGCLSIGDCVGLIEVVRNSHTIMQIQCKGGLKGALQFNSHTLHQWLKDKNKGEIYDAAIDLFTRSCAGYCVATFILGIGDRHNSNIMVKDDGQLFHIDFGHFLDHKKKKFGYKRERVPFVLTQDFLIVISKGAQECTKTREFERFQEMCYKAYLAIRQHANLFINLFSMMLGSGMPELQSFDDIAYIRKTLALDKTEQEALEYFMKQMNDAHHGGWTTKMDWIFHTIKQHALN
Chain of PI3Kα (P27986 whole entry partner, species assumed, canonical isoform): as the sequence (P27986 whole entry partner, species assumed, canonical isoform) above
Procedure: (§4) Enzymatic activity of PI3K isoforms: Enzymatic activity of the class I PI3K isoforms in the presence of the compounds of Table 1 was measured using ADP-Glo luminescent assay against PI3Kα, PI3Kβ, PI3Kδ and PI3Kγ with ATP concentration at 25 μM. IPI-549 was used as the reference compound. The compounds would be tested from 1 or 10 μM, 3-fold dilution for 10 doses, in duplicate.
as §1, §2, §3

PI3Kβ = PI3Kβ (Homo sapiens, UniProt P42338); assay: ADP-Glo luminescent assay, enzymatic activity of PI3K beta; assay type: biochemical; conditions: ATP 25 μM; read-out: PI3K beta (nM) inhibitory activity (IC50)
Chain of PI3Kβ (P42338 whole entry, species assumed): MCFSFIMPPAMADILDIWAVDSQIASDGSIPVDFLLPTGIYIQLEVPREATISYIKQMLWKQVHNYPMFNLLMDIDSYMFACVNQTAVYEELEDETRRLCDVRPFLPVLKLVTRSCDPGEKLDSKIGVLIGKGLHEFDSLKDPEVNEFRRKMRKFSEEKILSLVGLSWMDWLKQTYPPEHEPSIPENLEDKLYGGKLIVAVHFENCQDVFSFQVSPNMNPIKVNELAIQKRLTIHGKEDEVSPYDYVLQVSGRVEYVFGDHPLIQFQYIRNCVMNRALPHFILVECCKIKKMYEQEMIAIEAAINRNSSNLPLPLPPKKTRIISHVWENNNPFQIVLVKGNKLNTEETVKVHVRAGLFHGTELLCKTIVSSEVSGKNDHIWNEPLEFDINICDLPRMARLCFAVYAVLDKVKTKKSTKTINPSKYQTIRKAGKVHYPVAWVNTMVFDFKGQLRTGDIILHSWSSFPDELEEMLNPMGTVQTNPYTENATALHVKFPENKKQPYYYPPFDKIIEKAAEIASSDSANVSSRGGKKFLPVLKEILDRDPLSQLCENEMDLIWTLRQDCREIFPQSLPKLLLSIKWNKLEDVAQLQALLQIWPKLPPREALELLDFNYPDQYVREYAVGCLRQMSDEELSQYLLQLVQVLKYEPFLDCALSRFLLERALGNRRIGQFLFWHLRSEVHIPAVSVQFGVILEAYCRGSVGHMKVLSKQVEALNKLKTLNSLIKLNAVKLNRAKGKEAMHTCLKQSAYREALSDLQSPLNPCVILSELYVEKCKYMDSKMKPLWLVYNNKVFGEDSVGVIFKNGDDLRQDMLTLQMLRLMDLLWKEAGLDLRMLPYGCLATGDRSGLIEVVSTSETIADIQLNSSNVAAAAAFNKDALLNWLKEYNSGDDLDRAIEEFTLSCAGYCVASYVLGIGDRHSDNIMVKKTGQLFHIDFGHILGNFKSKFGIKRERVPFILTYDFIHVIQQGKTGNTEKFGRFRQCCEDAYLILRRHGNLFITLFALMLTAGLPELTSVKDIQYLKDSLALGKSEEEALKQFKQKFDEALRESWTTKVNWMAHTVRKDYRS
Chain of PI3Kβ (P27986 whole entry partner, species assumed): as the sequence (P27986 whole entry partner, species assumed, canonical isoform) above
Procedure: as §4, §1, §2, §3

[1] = Pharmacokinetics in mice (plasma and brain concentrations); assay type: in vivo, CD-1 mice; conditions: male CD1 mouse, oral gavage 20 mg/kg
Procedure: The dosing solution was administered to male CD-1 mice via oral gavage (PO) at 20 mg/kg. Blood and brain tissue samples were collected at 0.5, 2 and 8 hours post-dose. The blood samples were then centrifuged for 5 minutes in a centrifuge refrigerated at 4° C. The brain samples after blood removal were homogenized in water.

4T1 cells = assay: Anti-tumor efficacy in 4T1 syngeneic mouse tumor model; assay type: in vivo; conditions: 4T1 in BALB/c mice, oral gavage 100 mg/kg, FIG. 1
Procedure: BALB/c mice were inoculated subcutaneously at the fourth mammary pad with 4T1 cells for tumor development. On the next day after tumor cell inoculation, the mice were assigned into 2 groups using stratified randomization with 10 mice in each group based upon their body weight and inoculation order. […] The tumor sizes were measured three times per week during the treatment. Tumor volume was calculated by the formula: length×width^2/2.

MOG35-55 induced EAE = assay: Efficacy on MOG35-55 induced EAE; assay type: in vivo, C57BL/6 mice; conditions: 20 mg/kg and 80 mg/kg BID PO, 14 days from day 10, FIG. 2

Chain of PI3Kγ (P48736 whole entry, species assumed): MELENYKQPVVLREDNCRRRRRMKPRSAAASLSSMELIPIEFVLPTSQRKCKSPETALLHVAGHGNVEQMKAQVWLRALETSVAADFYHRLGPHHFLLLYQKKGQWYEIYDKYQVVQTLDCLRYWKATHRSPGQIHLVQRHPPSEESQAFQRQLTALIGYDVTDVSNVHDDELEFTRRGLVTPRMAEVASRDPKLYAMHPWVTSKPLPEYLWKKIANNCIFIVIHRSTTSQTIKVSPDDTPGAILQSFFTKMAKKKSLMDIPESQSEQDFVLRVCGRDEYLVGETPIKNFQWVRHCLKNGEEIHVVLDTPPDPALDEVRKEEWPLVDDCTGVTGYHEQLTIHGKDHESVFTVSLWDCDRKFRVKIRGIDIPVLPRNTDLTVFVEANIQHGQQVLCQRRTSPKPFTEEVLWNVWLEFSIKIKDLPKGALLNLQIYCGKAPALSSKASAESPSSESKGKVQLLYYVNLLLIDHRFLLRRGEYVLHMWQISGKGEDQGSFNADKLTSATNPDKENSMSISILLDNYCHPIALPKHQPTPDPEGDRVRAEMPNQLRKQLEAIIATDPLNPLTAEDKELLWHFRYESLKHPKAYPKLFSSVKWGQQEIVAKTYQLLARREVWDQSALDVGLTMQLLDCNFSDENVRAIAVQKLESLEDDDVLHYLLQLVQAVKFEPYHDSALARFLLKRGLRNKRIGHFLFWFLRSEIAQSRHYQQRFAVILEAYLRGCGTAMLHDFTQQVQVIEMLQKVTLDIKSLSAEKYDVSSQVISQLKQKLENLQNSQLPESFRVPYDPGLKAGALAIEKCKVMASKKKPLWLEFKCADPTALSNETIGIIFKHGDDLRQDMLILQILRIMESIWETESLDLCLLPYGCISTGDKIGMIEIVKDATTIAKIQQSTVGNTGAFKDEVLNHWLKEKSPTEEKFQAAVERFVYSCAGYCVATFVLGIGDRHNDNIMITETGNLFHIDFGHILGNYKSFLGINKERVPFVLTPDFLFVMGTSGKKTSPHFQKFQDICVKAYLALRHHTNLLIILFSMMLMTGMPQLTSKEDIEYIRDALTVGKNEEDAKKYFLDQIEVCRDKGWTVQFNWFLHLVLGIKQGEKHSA

SMILES | IC50 (PI3Kγ) | IC50 (PI3Kδ) | IC50 (PI3Kα) | IC50 (PI3Kβ) | concentration at 0.5 h ([1]; CD-1, brain, read-out: Brain) | concentration at 2 h ([1]; CD-1, brain, read-out: Brain) | concentration at 8 h ([1]; CD-1, brain, read-out: Brain) | concentration at 0.5 h ([1]; CD-1, plasma, read-out: Plasma) | concentration at 2 h ([1]; CD-1, plasma, read-out: Plasma) | concentration at 8 h ([1]; CD-1, plasma, read-out: Plasma) | tumor growth (tumor volume) (4T1 cells) | clinical disability symptom (EAE clinical score) (MOG35-55 induced EAE)
CC(=O)Nc1nc(C)c(-c2cc3c(c(NS(C)(=O)=O)n2)C(=O)N([C@@H](C)C2CC2)C3)s1 [Compound 20, (S)-N-(5-(2-(1-cyclopropylethyl)-4-(methylsulfonamido)-3-oxo-2,3-dihydro-1H-pyrrolo[3,4-c]pyridin-6-yl)-4-methylthiazol-2-yl)acetamide] | 1.3 nM | 1170 nM | 3890 nM | > 10000 nM | – | – | – | – | – | – | – | –
CC(=O)Nc1nc(C)c(-c2cc3c(c(N4CCOCC4)n2)C(=O)N([C@@H](C)C2CC2)C3)s1 [Compound 34, (S)-N-(5-(2-(1-cyclopropylethyl)-4-morpholino-3-oxo-2,3-dihydro-M-pyrrolo[3,4-c]pyridin-6-yl)-4-methylthiazol-2-yl)acetamide] | – | > 1000 nM | 3330 nM | > 10000 nM | 2490 ng/g | 473 ng/g | 454 ng/g | 2800 ng/mL | 1200 ng/mL | 1370 ng/mL | significantly suppressed tumor growth | significantly ameliorated the clinical disability symptom
